Assay results published in PMC12040169 (PLOS Biology, 2025).

Assay: in vitro
Settings: human, hela cells, % viability

Row | Compound | viability at 28.5 h, 10 µM [%]
1 | CCCCc1ccc(NC(=O)CSc2nnc(N)s2)c(C)c1 [CBK057659] | 91.9
2 | CCC(/C=C1\Oc2ccc(OC)cc2N1C)=C\c1sc2ccccc2[n+]1CCCS(=O)(=O)[O-] [CBK261080] | 90.3
3 | COc1ccc(Cn2c(=O)n(C(=O)c3cccc(S(C)(=O)=O)c3)c3ccccc32)cc1 [CBK106547] | 86.5
4 | Cn1nc(-c2cccs2)cc1[C@H]1CN2CC[C@H]1C[C@@H]2CNS(C)(=O)=O [CBK289102] | 93.5
5 | COc1ccc(CN2C(=S)N(c3ccc(OC)cc3)[C@H]3[C@@H]2[C@H]2OC(=O)[C@@H]3C[C@H]2O)cc1 [CBK288934] | 85.4
6 | CC(CN1CCCCC1)OC(=O)C(c1ccccc1)c1ccccc1 (centres unmarked) [CBK265237C] | 104
7 | O=C(CN1CCOCC1)Nc1ccc(NC(=O)CN2CCOCC2)c(Cl)c1 [CBK264243] | 112
8 | Cc1cc(COC(=O)N2CCCC(F)(F)C2)cc(C)n1 [CBK200151] | 125
9 | CN(C)C(=O)c1ccc(-c2ncc(OCCN3CCCC3=O)nc2N)cc1 [CBK145184] | 97.5
10 | Cc1c(Cl)cccc1NC(=S)NNC(=O)C(C)Oc1ccc(F)cc1F (centres unmarked) [CBK266823] | 97.8
11 | O=C1CN(C(=O)NCCc2c[nH]c3ccccc23)CCN1 [CBK155866] | 95.8
12 | CC(C)(C)n1cc(C(=O)N2CCNCC2c2cccc(Cl)c2)cn1 (centres unmarked) [CBK304112] | 96.9
13 | COc1cc(C(C[N+](=O)[O-])c2c(C)[nH]c3ccccc23)ccc1O (centres unmarked) [CBK115317] | 82.9
14 | COc1ccccc1-c1nccnc1N[C@H](C)c1ccccc1 [CBK038083] | 107
15 | O=C(NCc1cccs1)C1CCCN1c1nc(O)cc(C(F)(F)F)n1 (centres unmarked) [CBK004299] | 91.3
16 | Cc1ccc(NC(=O)CSc2nnc(-c3cnccn3)s2)cc1 [CBK269872] | 83.3
17 | C=CCn1c(SCC(=O)Nc2nc3ccc(OCC)cc3s2)nc2cc(C(=O)O)ccc2c1=O [CBK297520] | 113
18 | CN1CCC(N(C)Cc2coc3ccccc3c2=O)CC1 [CBK261578] | 103
19 | CCn1nc(C)c(C(C)NC(=O)CC(C)n2nc(C)cc2C)c1C (centres unmarked) [CBK281533] | 78.9
20 | CS(=O)(=O)c1ccc(-c2ccc(C(=O)N3CCN(C(=O)c4ccco4)CC3)cn2)cc1 [CBK160190] | 95.2
21 | CCN(CC)C(=O)CN1CC=C(c2ccc(C)o2)CC1 [CBK283497] | 100
22 | O=C(Cn1cccc(C(=O)NC2CCCCC2)c1=O)Nc1nc2c(s1)CCCCC2 [CBK286056] | 90.1
23 | O=C(Nc1ccc2[nH]ccc2c1)c1c(F)ccc(Cl)c1F [CBK159673] | 78.6

Row | Compound | viability at 28.5 h, 10 µM [%]
24 | CC(C)(C)C(=O)NC(=S)Nc1ccc(Cc2ccncc2)cc1 [CBK269717] | 91.5
25 | CCCC/C=C/c1cnc2[nH]c(=O)n(CCCOC)c2n1 [CBK064540] | 109
26 | COc1ccc(CCC(=O)NC[C@H]2CC[C@H](c3cc(C(N)=O)c4ccccc4n3)CC2)cc1 [CBK285920] | 91.7
27 | O=C(CCN1CCCCC1)NCC1OCCc2ccccc21 (centres unmarked) [CBK013619] | 97
28 | O=C(O)c1cccc(Sc2cccc(C(F)(F)F)n2)c1 [CBK093592] | 98
29 | O=C(Nc1ccccc1)Nc1nc(=O)n(-c2ccccc2)s1 [CBK070710] | 93
30 | CCn1cnc2cc(NC(=O)c3ccc(C)n(C)c3=O)ccc21 [CBK281402] | 106
31 | CCOC(=O)c1c(C)n(-c2ccc(C)cc2)c2ccc(O)c(CN(C)C)c12 [CBK263499C] | 78.5
32 | COc1cccc2cc(C(=O)NCc3c(F)cccc3F)oc12 [CBK149794] | 65
33 | c1cc2c(cc1CNc1nnn[nH]1)OCO2 [CBK018783] | 91.5
34 | CC(C)(O)Cc1ccccc1C(=O)NC1CCCCCC1 [CBK010502] | 81.7
35 | COc1ccc(OC)c(NC(=O)CSc2nnc(-c3ccncc3)n2C)c1 [CBK266623] | 103
36 | CC1CCc2c(sc(NC(=S)NC(=O)c3cc4ccccc4o3)c2C#N)C1 (centres unmarked) [CBK266319] | 101
37 | O=C(NC1CCCCC1)c1csc(-c2ccncc2)n1 [CBK288591] | 64.2
38 | CCNC(=O)N[C@H]1CC[C@]2(C)CCC([C@H](C)C(=O)N3CCCCC3)[C@H](O)[C@H]2[C@@H]1C (some centres unmarked) [CBK289455] | 84.7
39 | NCc1cnc2c(c1)CCC2 [CBK018584G] | 90.8
40 | CNCc1cc(Br)c(OCC(=O)Nc2ccccc2OC)c(OC)c1 [CBK107772] | 106
41 | CN1CCN(c2cc(CNC(=O)c3ccnc(Cl)c3)ccn2)CC1 [CBK298275] | 92.4
42 | Cc1cc(NC(=O)CNC(=O)c2ccccc2)no1 [CBK073427] | 99.7
43 | CC1(c2ccccc2)CC(C)(C)N(C(=O)CSc2nc3ccccc3o2)c2ccccc21 (centres unmarked) [CBK262466] | 104
44 | COc1cc(CNC(C)(C)CO)ccc1OCc1ccc(Cl)cc1 [CBK266433C] | 92
45 | CC(C)(C)c1cc(NC(=O)Cn2nc(C(=O)O)c3ccccc3c2=O)n(-c2ccccc2)n1 [CBK297557] | 85.1
46 | C/C(=N\NC(=O)C1CC1)c1ccc(C)cc1 [CBK016047] | 90.7

Row | Compound | viability at 28.5 h, 10 µM [%]
47 | CS(=O)(=O)N1CC2(CCN(CCc3ccc(F)cc3)CC2)c2ccccc21 [CBK084103] | 93.3
48 | Cc1nn(C)cc1CNC(=O)C1C2CCC(C2)C1C(=O)O (centres unmarked) [CBK286875] | 89.3
49 | c1coc(-c2cc(Nc3ccc4[nH]ccc4c3)ncn2)c1 [CBK090862] | 95.5
50 | CC1(N2CCOCC2)CC2(O)C(=[N+]1[O-])CCc1c2no[n+]1[O-] (centres unmarked) [CBK261516] | 90.5
51 | NS(=O)(=O)c1ccc(-c2nc(-c3ccccc3)no2)cc1 [CBK269957] | 87.8
52 | COc1cc(OC)nc(NC(=O)CN2CCN(c3ccc(F)cc3)CC2)n1 [CBK267259] | 96.5
53 | CCc1cc(=O)[nH]c(-c2ccc(N3CCCC3C(=O)N(C)C)nc2)n1 (centres unmarked) [CBK304197] | 89.2
54 | S=c1n(CN2CCC3(CC2)OCCO3)nc(-c2ccccc2Cl)n1-c1ccccc1 [CBK265222] | 88.4
55 | O=C(NC(=O)c1ccc(F)c(Cl)c1)Nc1nnc(C(F)(F)F)s1 [CBK076830] | 88.6
56 | O=C(CCc1ccc(S(=O)(=O)NC2CCCCC2)cc1)Nc1ccc2c(c1)OCCO2 [CBK266845] | 95.2
57 | Cc1cccc(CN2CCC(NC(=O)Cn3ccccc3=O)CC2)c1 [CBK305667] | 111
58 | Cc1ccc(S(=O)(=O)OC[C@H]2O[C@@H](n3cc(C)c(=O)[nH]c3=O)C[C@H]2O)cc1 [CBK201165] | 88.1
59 | O=C(CCC(=O)c1ccc2c(c1)OCCO2)OCC(=O)c1ccc(F)cc1 [CBK264679] | 103
60 | CCOC(=O)c1cccc(S(=O)(=O)NC(C)Cn2cncn2)c1 (centres unmarked) [CBK305820] | 95.9
61 | COc1ccc(S(=O)(=O)N(C)CC(=O)Nc2cccc(C(F)(F)F)c2)cc1OC [CBK266242] | 95.5
62 | CC(=O)N(C)c1ccc(NS(=O)(=O)c2cc(C)c(Cl)cc2C)cc1 [CBK045298] | 94.3
63 | Cc1ccccc1Nc1nc(N)nc(CN2CCOCC2)n1 [CBK305646] | 87.5
64 | c1ccc2c(c1)CCC(Oc1cncc(N3CCNCC3)n1)C2 (centres unmarked) [CBK172295G] | 97
65 | CCNCCNc1ccc([N+](=O)[O-])cc1 [CBK264179C] | 94.1
66 | CCC#CC(=O)Nc1ccccc1N1CCCNCC1 [CBK024291T] | 98.5
67 | O=C(NCc1cccs1)c1cncc(-c2ccc(C(=O)N3CCOCC3)cc2)c1 [CBK158617] | 87.4
68 | N#Cc1ccc(C(=O)NCc2ccc(OC3CCNCC3)cc2)cc1 [CBK036358T] | 89.5
69 | Cc1nc2cc(Cl)ccc2n1CCO [CBK110738] | 100

Row | Compound | viability at 28.5 h, 10 µM [%]
70 | O=C(Cc1ccccc1)Nc1nnc(Cc2ccc3c(c2)OCCO3)o1 [CBK287661] | 94.2
71 | Cc1cc(C)n(CC2CCCCN2Cc2ccccn2)n1 (centres unmarked) [CBK304853] | 86.7
72 | Cc1ccc(SCCNC(=O)CSc2n[nH]c(=O)n2C2CC2)cc1 [CBK295605] | 120
73 | COC(=O)c1ccc(NC(=O)CN2CCC(C(N)=O)(N3CCCCC3)CC2)cc1 [CBK268275] | 95.5
74 | CN(C)C(=O)c1ccc(-c2cnc(N)c(-c3ccc(O)cc3)n2)cc1 [CBK116686] | 91.7
75 | CCN(CCc1nc2cc(OC)ccc2[nH]1)C(=O)c1ccc(=O)n(C)c1 [CBK307312] | 77
76 | Cc1ccc(-c2noc(CNC(=O)CSc3ccccc3)n2)cc1 [CBK270199] | 91.5
77 | CCn1c(CN2CCOCC2)nnc1SCC(=O)Nc1cc(Cl)ccc1C [CBK270183] | 93.8
78 | Cc1cc(NC(=O)C(C)N2CCN(S(=O)(=O)c3ccc(C4CCCCC4)cc3)CC2)on1 (centres unmarked) [CBK295639] | 101
79 | O=C(c1cc(S(=O)(=O)N2CCOCC2)ccc1Cl)N1CCCC(CO)C1 (centres unmarked) [CBK304236] | 104
80 | OCCN1CCN(C(c2cccs2)c2ccc3cccnc3c2O)CC1 (centres unmarked) [CBK296964] | 76.7
81 | O=C(CSc1ccccn1)Nc1ccc2ccccc2c1 [CBK263860] | 101
82 | CCn1cc(CN(CCO)C(=O)c2cccc(C#N)c2C)cn1 [CBK304196] | 109
83 | NCCN(C(=O)CCc1cc(C(F)(F)F)cc(C(F)(F)F)c1)c1ccc2c(c1)OCO2 [CBK000701T] | 105
84 | Cc1cc(=O)[nH]c2c1c(=O)[nH]n2C1CCCCCC1 [CBK288381] | 80.8
85 | Cc1nnc(CN(CC2CCCO2)C2CCCC2)n1C1CC1 (centres unmarked) [CBK304147] | 95.5
86 | OC1(CN2CCCC2)COCCN(c2nnc(-c3ccccc3)s2)C1 (centres unmarked) [CBK306558] | 97.5
87 | C=C(C)Cn1c(SC(C)C)nnc1-c1ccccc1OC(F)(F)F [CBK200081] | 114
88 | CC1(C)CC(=O)c2sc(NC(=O)C3CC3)nc2C1 [CBK287329] | 104
89 | CCn1c2cc(C)sc2c2cnn(Cc3cccnc3)c(=O)c21 [CBK284169] | 86.6
